# Columns and labels:
# [1] = test system: cellular Hsp90; test: 3H-17AAG uptake in intact HT29 cells; assay type: cell-based; settings: CP9 0.4 to 12.5 μM, 3H-17AAG 0.5 μM, 1 h, dose-dependent, p<0.05
# Method: FIG. 5D is a graph illustrating the inhibition of ^3H-17AAG uptake by CP9 in HT29 cells. HT29 cells were pre-incubated with different concentrations of CP9 together with ^3H-17AAG (0.5 μM) for 1 h followed by 1 h of wash-out of unbound ^3H-17AAG in fresh medium. The amount of ^3H-17-AAG incorporated intracellularly was determined by scintillation counting of cell lysates, followed by normalization for protein content and to carrier control-treated cells. Cells incubated with 5 μM of PU-H71 served as a positive control. Results are expressed as means of triplicates±S.E.M. *, p<0.05 vs. carrier control-treated cells.
# To confirm the direct binding of CP9 to Hsp90(α/β), an in vitro competitive binding assay using purified Hsp90α and Hsp90β was performed using radiolabeled Hsp90 inhibitor ^3H-17AAG. Hsp90 proteins were pre-bound with CP9 or cold 17-AAG as a control prior to incubation with ^3H-17AAG. Unbound ^3H-17AAG was removed and the amount of ^3H-17AAG bound to the Hsp90 proteins was determined. […]
# To determine if CP9 binds to cellular Hsp90, an uptake study of ^3H-17AAG (Moravek Biochemicals, Brea, Calif.) was performed. […] The total counts in each sample were normalized to that of the dose added to each well and to the amount of protein, and expressed as mean counts/dose/μg protein±S.E.M.
# [2] = target: purified Hsp90α (Homo sapiens, UniProt P07900); test: In vitro competitive binding with 3H-17AAG; settings: CP9 200 μM pre-incubation; p<0.05
# Method: (§1) FIG. 5C is a graph illustrating the competitive in vitro binding of CP9 with ^3H-17AAG to Hsp90(α/β). Purified Hsp90(α/β) was pre-incubated with CP9 (200 μM) or cold 17-AAG (50 μM) prior to incubation with ^3H-17AAG. The reaction complexes were then eluted through a desalting column to remove any unbound ^3H-17AAG prior to scintillation counting for the amount of ^3H-17AAG bound to Hsp90(α/β). Columns incubated with ^3H-17AAG alone served as negative controls. Results are expressed as means of triplicates±S.E.M. *, p<5×10^−6 vs. carrier control-treated cells.
# (§2) To confirm the direct binding of CP9 to Hsp90(α/β), an in vitro competitive binding assay using purified Hsp90α and Hsp90β was performed using radiolabeled Hsp90 inhibitor ^3H-17AAG. Hsp90 proteins were pre-bound with CP9 or cold 17-AAG as a control prior to incubation with ^3H-17AAG. Unbound ^3H-17AAG was removed and the amount of ^3H-17AAG bound to the Hsp90 proteins was determined. […] To confirm cellular Hsp90 as the target of CP9, uptake studies in intact HT29 cells were performed by monitoring the competitive binding of ^3H-17AAG. […]
# (§3) To verify the binding of CP9 to Hsp90α and Hsp90β in vitro, a displacement assay using ^3H-17AAG was performed. […] The amount of ^3H-17AAG that remained bound to Hsp90α or Hsp9013 was determined by scintillation counting.
# [3] = target: purified Hsp90β (Homo sapiens, UniProt P08238); test: In vitro competitive binding with 3H-17AAG; settings: CP9 200 μM pre-incubation
# Method: as §1, §2, §3
# [4] = 18F-FDG uptake in the brains of mice; assay type: in vivo; settings: CP9 treated mice; P>0.05 vs carrier
# Method: The ^18F-FDG uptake in the brains of mice using CT images to delineate boundaries was also analyzed. Relative to day 0, the maximum % ID/g of ^18F-FDG uptake was 114±11% in mice treated with carrier and 99±4% in mice treated with CP9. There was no statistical difference between the two groups (P>0.05).
# purified Hsp90β, sequence (P08238 whole entry): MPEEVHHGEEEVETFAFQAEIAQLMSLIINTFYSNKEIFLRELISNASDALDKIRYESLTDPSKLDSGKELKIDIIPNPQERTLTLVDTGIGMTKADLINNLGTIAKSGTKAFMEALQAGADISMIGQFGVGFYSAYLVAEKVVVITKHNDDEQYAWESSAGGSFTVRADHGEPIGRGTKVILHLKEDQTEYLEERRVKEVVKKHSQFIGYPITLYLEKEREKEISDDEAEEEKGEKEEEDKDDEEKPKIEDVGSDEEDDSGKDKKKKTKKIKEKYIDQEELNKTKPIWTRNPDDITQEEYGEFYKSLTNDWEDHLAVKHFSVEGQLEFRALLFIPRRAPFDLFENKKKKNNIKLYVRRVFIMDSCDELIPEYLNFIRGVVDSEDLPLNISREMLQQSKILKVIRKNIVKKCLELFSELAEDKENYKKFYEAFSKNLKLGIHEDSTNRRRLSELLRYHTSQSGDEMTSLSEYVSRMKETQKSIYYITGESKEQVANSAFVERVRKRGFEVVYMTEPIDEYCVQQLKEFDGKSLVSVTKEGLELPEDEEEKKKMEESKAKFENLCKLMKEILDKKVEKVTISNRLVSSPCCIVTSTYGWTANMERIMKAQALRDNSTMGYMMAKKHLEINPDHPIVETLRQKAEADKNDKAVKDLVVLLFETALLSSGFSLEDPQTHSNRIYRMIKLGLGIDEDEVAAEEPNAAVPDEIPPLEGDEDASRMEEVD
smiles,measurement,setting,value
"Cc1cc(NC(=O)CSc2nc(-c3cccs3)cc(C(F)(F)F)n2)no1 [CP9, N-(5-methylisoxazol-3-yl)-2-(4-(thiophen-2-yl)-6-(trifluoromethyl)pyrimidin-2-ylthio)acetamide]",maximum reduction in uptake of 3H-17AAG relative to carrier control,[1],30%
same,reduction of binding of 3H-17AAG to purified Hsp90α,[2],about 50%
same,binding of 3H-17AAG to Hsp90β,[3],did not significantly affect
same,maximum % ID/g of 18F-FDG uptake in brain relative to day 0,[4],99±4%

# Source: patent US20130310347A1, “MULTI-MODALITY MOLECULAR IMAGING HIGH-THROUGHPUT ASSAY FOR IDENTIFYING HEAT SHOCK PROTEIN 90 (HSP90) INHIBITORS” (The Board of Trustees of the Leland Stanford Junior …, priority 2012, published 2013)
